Data reported in patent publication US20250129078A1, “ERBB2 INHIBITORS” (Cogent Biosciences, Inc., priority 2023, published 2025).
Counter-ions that a name gives are not always drawn.

What follows are molecules tested against EGFR WT (Homo sapiens (Human), UniProt P00533) (assay: ErbB enzyme assay (CisBio HTRF-KinEASE-TK), EGFR WT). Settings: ATP at Km (25 μM), 1 h incubation.
Type: biochemical
In short: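 Tyrosine kinase HTRF, 1 h RT reaction → quench (Sa-XL665/TK-Ab-Cryptate) → 1 h RT → 655/620 ratio.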

Sequence of EGFR WT (P00533 25-1210): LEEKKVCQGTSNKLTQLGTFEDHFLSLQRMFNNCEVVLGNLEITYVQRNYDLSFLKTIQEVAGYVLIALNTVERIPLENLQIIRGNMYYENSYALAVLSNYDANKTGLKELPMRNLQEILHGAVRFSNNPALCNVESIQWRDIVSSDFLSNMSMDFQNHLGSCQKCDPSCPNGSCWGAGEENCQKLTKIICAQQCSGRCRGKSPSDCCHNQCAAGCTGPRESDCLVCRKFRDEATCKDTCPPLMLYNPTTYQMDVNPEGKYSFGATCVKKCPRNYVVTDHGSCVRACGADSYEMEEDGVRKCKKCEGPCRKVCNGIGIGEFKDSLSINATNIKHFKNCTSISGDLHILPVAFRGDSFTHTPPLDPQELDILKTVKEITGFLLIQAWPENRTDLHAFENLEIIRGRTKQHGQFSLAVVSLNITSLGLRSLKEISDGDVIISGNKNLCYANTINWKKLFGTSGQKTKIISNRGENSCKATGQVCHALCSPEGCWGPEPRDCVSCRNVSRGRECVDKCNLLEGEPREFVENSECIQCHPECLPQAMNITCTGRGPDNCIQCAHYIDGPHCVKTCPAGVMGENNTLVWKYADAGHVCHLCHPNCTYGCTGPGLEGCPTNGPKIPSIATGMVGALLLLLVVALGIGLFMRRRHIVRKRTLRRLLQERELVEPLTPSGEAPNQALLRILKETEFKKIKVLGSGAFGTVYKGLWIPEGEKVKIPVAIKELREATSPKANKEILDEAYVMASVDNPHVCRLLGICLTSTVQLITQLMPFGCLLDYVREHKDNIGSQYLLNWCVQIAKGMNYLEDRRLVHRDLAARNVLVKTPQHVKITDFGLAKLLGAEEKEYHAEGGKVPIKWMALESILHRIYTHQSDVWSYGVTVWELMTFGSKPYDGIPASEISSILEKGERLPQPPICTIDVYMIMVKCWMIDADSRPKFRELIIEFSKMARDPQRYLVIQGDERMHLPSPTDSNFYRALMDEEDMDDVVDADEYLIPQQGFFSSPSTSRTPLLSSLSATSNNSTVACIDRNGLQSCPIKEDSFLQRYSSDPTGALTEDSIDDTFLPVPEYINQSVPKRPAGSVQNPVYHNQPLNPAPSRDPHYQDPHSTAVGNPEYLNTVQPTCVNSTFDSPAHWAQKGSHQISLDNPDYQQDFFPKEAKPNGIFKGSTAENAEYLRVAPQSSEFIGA

Compared with C=CC(=O)N1CCN(c2ccc3ncnc(Nc4ccc(Oc5ccc6c(c5)nnn6C)c(C)c4)c3n2)C[C@H]1CC#N [Compound 84, (R)-2-(1-acryloyl-4-(4-((3-methyl-4-((1-methyl-H-benzo[d][1,2,3]triazol-5-yl)oxy)phenyl)amino)pyrido[3,2-d]pyrimidin-6-yl)piperazin-2-yl)acetonitrile], C=CC(=O)N1CCN(c2ccc3ncnc(Nc4ccc(Oc5ccc6c(c5)nnn6C)c(C)c4)c3n2)C[C@@H]1C [Compound 72, (S)-1-(2-methyl-4-(4-((3-methyl-4-((1-methyl-1H-benzo[d][1,2,3]triazol-5-yl)oxy)phenyl)amino)pyrido[3,2-d]pyrimidin-6-yl)piperazin-1-yl)prop-2-en-1-one] is higher in IC50: < 0.05 µM for the first, 0.1 to 0.5 µM for the second. The first is the more potent here.

C=CC(=O)N1CCN(c2ncc3ncnc(Nc4ccc(Oc5cc6nnn(C)c6c(C)c5F)c(C)c4)c3n2)C[C@H]1C [Compound 236, (R)-1-(4-(8-((4-((6-fluoro-1,7-dimethyl-1H-benzo[d][1,2,3]triazol-5-yl)oxy)-3-methylphenyl)amino)pyrimido[5,4-d]pyrimidin-2-yl)-2-methylpiperazin-1-yl)prop-2-en-1-one] and C=CC(=O)N1CCN(c2ncc3ncnc(Nc4ccc(Oc5ccc6c(c5)nnn6C)c(C)c4)c3n2)C[C@H]1CF (single isomer, unassigned) [Compound 198] fall in the same range of IC50: 0.1 to 0.5 µM for the first, 0.1 to 0.5 µM for the second.

C=CC(=O)N1CCN(c2ncc3ncnc(Nc4ccc(Oc5ccc6c(c5)nnn6C)c(C)c4)c3n2)C[C@H]1C(C)C [Compound 121, (R)-1-(2-isopropyl-4-(8-((3-methyl-4-((1-methyl-1H-benzo[d][1,2,3]triazol-5-yl)oxy)phenyl)amino)pyrimido[5,4-d]pyrimidin-2-yl)piperazin-1-yl)prop-2-en-1-one] and C=CC(=O)N1[C@H](C)CN(c2ncc3ncnc(Nc4ccc(Oc5ccc6c(c5)nnn6C)c(C)c4)c3n2)C[C@H]1C [Compound 183, 1-((2R,6R)-2,6-dimethyl-4-(8-((3-methyl-4-((1-methyl-1H-benzo[d][1,2,3]triazol-5-yl)oxy)phenyl)amino)pyrimido[5,4-d]pyrimidin-2-yl)piperazin-1-yl)prop-2-en-1-one] cannot be ordered by IC50: ≥ 1 µM for the first, ≥ 1 µM for the second.

First: C=CC(=O)N1C2C=C(c3ccc4ncnc(Nc5ccc(Oc6ccc7c(c6)nnn7C)c(C)c5)c4n3)CC1COC2 (stereo not shown) [Compound 408, 1-(7-(4-((3-methyl-4-((1-methyl-1H-benzo[d][1,2,3]triazol-5-yl)oxy)phenyl)amino)pyrido[3,2-d]pyrimidin-6-yl)-3-oxa-9-azabicyclo[3.3.1]non-6-en-9-yl)prop-2-en-1-one trifluoroacetate]
Second: C=CC(=O)N1CCN(c2ccc3ncnc(Nc4ccc(Oc5ccc6c(c5)nnn6C)c(C)c4)c3n2)C2CC21 (stereo not shown) [Compound 75, 1-(5-(4-((3-methyl-4-((1-methyl-1H-benzo[d][1,2,3]triazol-5-yl)oxy)phenyl)amino)pyrido[3,2-d]pyrimidin-6-yl)-2,5-diazabicyclo[4.1.0]heptan-2-yl)prop-2-en-1-one]
The IC50 of the first is higher: 0.1 to 0.5 µM for the first, < 0.05 µM for the second. The second is the more potent here.

C=CC(=O)N1CCN(c2ncc3ncnc(Nc4ccc(Oc5cc(OC)c6c(c5)nnn6C)c(C)c4)c3n2)CC1 [Compound 113, 1-(4-(8-((4-((7-methoxy-1-methyl-1H-benzo[d][1,2,3]triazol-5-yl)oxy)-3-methylphenyl)amino)pyrimido[5,4-d]pyrimidin-2-yl)piperazin-1-yl)prop-2-en-1-one] and Cc1cc(Nc2ncnc3cnc(N4CCN(C(=O)/C=C/C(F)(F)F)CC4)nc23)ccc1Oc1ccc2c(c1)nnn2C [Compound 217, 4,4,4-trifluoro-1-(4-(8-((3-methyl-4-((1-methyl-1H-benzo[d][1,2,3]triazol-5-yl)oxy)phenyl)amino)pyrimido [5,4-d]pyrimidin-2-yl)piperazin-1-yl) but-2-en-1-one] cannot be ordered by IC50: < 0.05 µM for the first, < 0.05 µM for the second.

COC[C@@H]1CN(c2ccc3ncnc(Nc4ccc(Oc5ccc6c(c5)nnn6C)c(C)c4)c3n2)CCN1C(=O)/C=C/CF [Compound 363, (S,E)-4-fluoro-1-(2-(methoxymethyl)-4-(4-((3-methyl-4-((1-methyl-1H-benzo[d][1,2,3]triazol-5-yl)oxy)phenyl)amino)pyrido[3,2-d]pyrimidin-6-yl)piperazin-1-yl)but-2-en-1-one] and COC[C@@H]1CN(c2ccc3ncnc(Nc4ccc(Oc5ccc6c(c5)nnn6C)c(C)c4F)c3n2)CCN1C(=O)/C=C/CF [Compound 361, (S,E)-4-fluoro-1-(4-(4-((2-fluoro-3-methyl-4-((1-methyl-1H-benzo[d][1,2,3]triazol-5-yl)oxy)phenyl)amino)pyrido[3,2-d]pyrimidin-6-yl)-2-(methoxymethyl)piperazin-1-yl)but-2-en-1-one] fall in the same range of IC50: 0.05 to 0.1 µM for the first, 0.05 to 0.1 µM for the second.

C=CC(=O)N[C@H]1CCN(c2ccc3ncnc(Nc4ccc(Oc5ccc6c(c5)nnn6C)c(C)c4F)c3n2)C[C@@H]1F [Compound 280, N-((3S,4S)-3-fluoro-1-(4-((2-fluoro-3-methyl-4-((1-methyl-1H-benzo[d][1,2,3]triazol-5-yl)oxy)phenyl)amino)pyrido[3,2-d]pyrimidin-6-yl)piperidin-4-yl)acrylamide] and C=CC(=O)N[C@@H]1CN(c2ccc3ncnc(Nc4ccc(Oc5ccc6c(c5)nnn6C)c(C)c4F)c3n2)CC[C@H]1C [Compound 309, N-((3S,4R)-1-(4-((2-fluoro-3-methyl-4-((1-methyl-1H-benzo[d][1,2,3]triazol-5-yl)oxy)phenyl)amino)pyrido[3,2-d]pyrimidin-6-yl)-4-methylpiperidin-3-y1)acrylamide] fall in the same range of IC50: 0.1 to 0.5 µM for the first, 0.1 to 0.5 µM for the second.

C=CC(=O)N[C@H]1C[C@@H](C)CN(c2ccc3ncnc(Nc4ccc(Oc5ccc6c(c5)nnn6C)c(C)c4F)c3n2)C1 (single isomer, unassigned) [Compound 337] and C=CC(=O)N[C@H]1C[C@H](C)CN(c2ccc3ncnc(Nc4ccc(Oc5ccc6c(c5)nnn6C)c(C)c4F)c3n2)C1 (single isomer, unassigned) [Compound 339] fall in the same range of IC50: 0.1 to 0.5 µM for the first, 0.1 to 0.5 µM for the second.

Compared with C=CC(=O)N[C@]1(C)CCN(c2ncc3ncnc(Nc4ccc(Oc5ccc6c(c5)nnn6C)c(C)c4)c3n2)C1 [Compound 144, (R)-N-(3-methyl-1-(8-((3-methyl-4-((1-methyl-1H-benzo[d][1,2,3]triazol-5-yl)oxy)phenyl)amino)pyrimido[5,4-d]pyrimidin-2-yl)pyrrolidin-3-yl)acrylamide], C=CC(=O)N1CCN(c2ccc3ncnc(Nc4ccc(Oc5ccc6c(c5)nnn6C)c(C)c4)c3n2)CC1(C)C [Compound 89, 1-(2,2-dimethyl-4-(4-((3-methyl-4-((1-methyl-1H-benzo[d][1,2,3]triazol-5-yl)oxy)phenyl)amino)pyrido[3,2-d]pyrimidin-6-yl)piperazin-1-yl)prop-2-en-1-one] is higher in IC50: < 0.05 µM for the first, 0.05 to 0.1 µM for the second.

First: C=CC(=O)N1CCC(Oc2ncc3ncnc(Nc4ccc(Oc5ccn6ncnc6c5)c(C)c4)c3n2)CC1 [Compound 376, 1-(4-((8-((4-([1,2,4]triazolo[1,5-a]pyridin-7-yloxy)-3-methylphenyl)amino)pyrimido[5,4-d]pyrimidin-2-yl)oxy)piperidin-1-yl)prop-2-en-1-one]
Second: C=CC(=O)N1CCN(c2ncc3ncnc(Nc4ccc(Oc5cnn6ccnc6c5)c(C)c4)c3n2)CC1 [Compound 234, 1-(4-(8-((4-(imidazo[1,2-b]pyridazin-7-yloxy)-3-methylphenyl)amino)pyrimido[5,4-d]pyrimidin-2-yl)piperazin-1-yl)prop-2-en-1-one]
The IC50 of the first is higher: 0.1 to 0.5 µM for the first, < 0.05 µM for the second.

C=CC(=O)N1CCN(c2ccc3ncnc(Nc4ccc(Oc5cc6ncnn6cn5)c(C)c4)c3n2)CC1(C)C [Compound 328, 1-(4-(4-((4-([1,2,4]triazolo[1,5-c]pyrimidin-7-yloxy)-3-methylphenyl)amino)pyrido[3,2-d]pyrimidin-6-yl)-2,2-dimethylpiperazin-1-yl)prop-2-en-1-one] and C=CC(=O)N1CCN(c2ccc3ncnc(Nc4ccc(Oc5ccc6c(c5)nnn6C)c(C)c4)c3n2)CC12CC2 [Compound 74, 1-(7-(4-((3-methyl-4-((1-methyl-1H-benzo[d][1,2,3]triazol-5-yl)oxy)phenyl)amino)pyrido[3,2-d]pyrimidin-6-yl)-4,7-diazaspiro[2.5]octan-4-yl)prop-2-en-1-one] cannot be ordered by IC50: < 0.05 µM for the first, < 0.05 µM for the second.

First: C=CC(=O)N1CCN(c2ccc3ncnc(Nc4c(OC)cc(Oc5cc(F)c6c(c5)ncn6C)c(C)c4F)c3n2)C[C@H]1C [Compound 257, (R)-1-(4-(4-((2-fluoro-4-((7-fluoro-1-methyl-1H-benzo[d]imidazol-5-yl)oxy)-6-methoxy-3-methylphenyl)amino)pyrido[3,2-d]pyrimidin-6-yl)-2-methylpiperazin-1-yl)prop-2-en-1-one]
Second: C=CC(=O)N1CCN(c2ccc3ncnc(Nc4cc(Cl)c(Oc5ccc6c(c5)nnn6C)cc4F)c3n2)CC1 [Compound 244, 1-(4-(4-((5-chloro-2-fluoro-4-((1-methyl-1H-benzo[d][1,2,3]triazol-5-yl)oxy)phenyl)amino)pyrido[3,2-d]pyrimidin-6-yl)piperazin-1-yl)prop-2-en-1-one]
The IC50 of the first is lower: < 0.05 µM for the first, 0.1 to 0.5 µM for the second.

Compared with C=CC(=O)N1CC2CCC1CN2c1ccc2ncnc(Nc3ccc(Oc4ccc5c(c4)nnn5C)c(C)c3)c2n1 (stereo not shown) [Compound 82, 1-(5-(4-((3-methyl-4-((1-methyl-1H-benzo[d][1,2,3]triazol-5-yl)oxy)phenyl)amino)pyrido[3,2-d]pyrimidin-6-yl)-2,5-diazabicyclo[2.2.2]octan-2-yl)prop-2-en-1-one], Cc1cc(Nc2ncnc3cnc(N4CCN(C(=O)/C=C/Cn5cccn5)CC4)nc23)ccc1Oc1ccc2c(c1)nnn2C [Compound 233, (E)-1-(4-(8-((3-methyl-4-((1-methyl-1H-benzo[d][1,2,3]triazol-5-yl)oxy)phenyl)amino)pyrimido[5,4-d]pyrimidin-2-yl)piperazin-1-yl)-4-(1H-pyrazol-1-yl)but-2-en-1-one] is higher in IC50: < 0.05 µM for the first, ≥ 1 µM for the second.

C=CC(=O)N[C@@H]1C[C@H](C)CN(c2ncc3ncnc(Nc4ccc(Oc5ccc6c(c5)nnn6C)c(C)c4F)c3n2)C1 (single isomer, unassigned) [Compound 203] and C=CC(=O)N[C@@H]1C[C@@H](C)CN(c2ncc3ncnc(Nc4ccc(Oc5ccc6c(c5)nnn6C)c(C)c4F)c3n2)C1 (single isomer, unassigned) [Compound 201] cannot be ordered by IC50: ≥ 1 µM for the first, ≥ 1 µM for the second.
